Test results: ChEMBL document CHEMBL1201862, “PubChem BioAssay data set” (2004)
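Compound exposure: 48 hours, 5 concentrations, 96-well plates. GI50 is the concentration that inhibits growth by half.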 The source made the active and inactive calls. Rule as the data show it: active = GI50 up to about 1.1 µM and inactive = higher.

Columns and labels:
Assay in all cases: NCI anticancer screen, dose series, 48 h
[1] = system: TK-10
[2] = system: HCT-15
[3] = system: HCC 2998
[4] = system: SNB-75
[5] = system: HOP-92
[6] = system: HOP-62
[7] = system: PC-3
[8] = system: SF-268
[9] = system: NCI-H226
[10] = system: OVCAR-4
[11] = system: SW-620
[12] = system: COLO 205
[13] = system: 786-0
[14] = system: UACC-257
[15] = system: BT-549
[16] = system: RPMI-8226
[17] = system: Hs-578T
[18] = system: DU-145
[19] = system: MDA-MB-435
[20] = system: XF498

Row | SMILES | GI50 [1] | GI50 [2] | GI50 [3] | GI50 [4] | GI50 [5] | GI50 [6] | GI50 [7] | GI50 [8] | GI50 [9] | GI50 [10] | GI50 [11] | GI50 [12] | GI50 [13] | GI50 [14] | GI50 [15] | GI50 [16] | GI50 [17] | GI50 [18] | GI50 [19] | GI50 [20]
1 | Oc1ccccc1-c1nn2c(CCCCCCCCc3nnc4sc(-c5ccccc5O)nn34)nnc2s1 | 37.2 µM (inactive) | 7.6 µM | 27.2 µM (inactive) | 5.94 µM (inactive) | 19.1 µM (inactive) | 8.71 µM (inactive) | 26.5 µM (inactive) | 19 µM (inactive) | > 48.9 µM (inactive) | 14.1 µM (inactive) | 27.9 µM (inactive) | 37.2 µM (inactive) | 14.7 µM (inactive) | 20.3 µM (inactive) | 24.2 µM (inactive) | 11.1 µM (inactive) | 8.57 µM (inactive) | 18 µM (inactive) | 5.18 µM (inactive) | –
2 | CC(=O)Nc1ccc(-c2nc3ccccc3s2)cc1 | 57.8 µM (inactive) | 81.5 µM | 73.8 µM (inactive) | 30.8 µM (inactive) | 55.5 µM (inactive) | 20.9 µM (inactive) | 64.7 µM (inactive) | 51.3 µM (inactive) | 44.8 µM (inactive) | 29.4 µM (inactive) | 53.6 µM (inactive) | 58.9 µM (inactive) | 24 µM (inactive) | > 100 µM (inactive) | > 10 µM (inactive) | > 100 µM (inactive) | 40.3 µM (inactive) | 4.9 µM (inactive) | 97.5 µM (inactive) | –
3 | Cc1ccc2c(O)cc(-c3cc(C)sc3C)nc2n1 | 25.1 µM (inactive) | 1.46 µM | 4.05 µM (inactive) | 2.9 µM (inactive) | 17.9 µM (inactive) | 6.07 µM (inactive) | 2.55 µM (inactive) | 6.04 µM (inactive) | 2.38 µM (inactive) | > 36.6 µM (inactive) | 1.67 µM (inactive) | 2.26 µM (inactive) | 3.93 µM (inactive) | > 37.7 µM (inactive) | 8.87 µM (inactive) | 2.37 µM (inactive) | 2.47 µM (inactive) | 3.99 µM (inactive) | 0.351 µM (active) | –
4 | [N-]=[N+]=Nc1c(C=O)c(=O)n2c3c(cccc13)CCC2 | 4.74 µM (inactive) | 3.27 µM | 16.9 µM (inactive) | 14.2 µM (inactive) | 2.15 µM (inactive) | 18 µM (inactive) | 12.1 µM (inactive) | 14.4 µM (inactive) | 11.9 µM (inactive) | 2.24 µM (inactive) | 1.39 µM (inactive) | 2.3 µM (inactive) | 3.93 µM (inactive) | 4.53 µM (inactive) | 2.65 µM (inactive) | 2.87 µM (inactive) | 15.3 µM (inactive) | 5.15 µM (inactive) | 6.89 µM (inactive) | –
5 | N#CC1=C(S)N(C2OC(CO)C(O)C(O)C2O)C(c2ccccc2)=CC1c1cccs1 (configuration not stated) | 29 µM (inactive) | 32.7 µM | 21.7 µM (inactive) | 20.5 µM (inactive) | 23.3 µM (inactive) | 22.1 µM (inactive) | 15.1 µM (inactive) | 24.8 µM (inactive) | 16.6 µM (inactive) | 33.8 µM (inactive) | 16.6 µM (inactive) | 21.1 µM (inactive) | 16.5 µM (inactive) | 21.7 µM (inactive) | 16.1 µM (inactive) | 26.3 µM (inactive) | 23.4 µM (inactive) | > 10 µM (inactive) | 20.3 µM (inactive) | –
6 | O=C1c2ccccc2C(=O)c2c1ccc1c3ccccc3n(Cc3ccccc3)c21 | – | > 100 µM | – | 2.35 µM (inactive) | 26.2 µM (inactive) | > 100 µM (inactive) | – | > 100 µM (inactive) | 54.6 µM (inactive) | 53.6 µM (inactive) | > 100 µM (inactive) | > 100 µM (inactive) | > 100 µM (inactive) | – | – | > 100 µM (inactive) | – | – | – | > 100 µM (inactive)
7 | COC(=O)[C@@H]1[C@H]2CC[C@]3(C)[C@@H](OC(C)=O)CC[C@H]3[C@@H]2CC[C@H]1C1(C)SCCS1 | 75 µM (inactive) | 32 µM | 35.6 µM (inactive) | 37.2 µM (inactive) | 18.7 µM (inactive) | 23.1 µM (inactive) | 26.8 µM (inactive) | 44.4 µM (inactive) | 23.9 µM (inactive) | 25.1 µM (inactive) | 31.9 µM (inactive) | 13.5 µM (inactive) | 22.7 µM (inactive) | 25.2 µM (inactive) | 18.4 µM (inactive) | 19.3 µM (inactive) | 23.7 µM (inactive) | 35.9 µM (inactive) | 16.3 µM (inactive) | –
8 | COc1ccc([C@@]23Oc4cc(OC)cc(OC)c4[C@]2(O)[C@H](O)[C@H](C(=O)N(C)C)[C@H]3c2ccccc2)cc1 [ROCAGLAMIDE] | 0.0146 µM (active) | 0.0176 µM | 0.00289 µM (active) | 0.00935 µM (active) | 0.0138 µM (active) | 0.00973 µM (active) | 0.00836 µM (active) | 0.00849 µM (active) | 0.0113 µM (active) | 0.0206 µM (active) | 0.00299 µM (active) | 0.00647 µM (active) | 0.00953 µM (active) | 0.0184 µM (active) | 0.0583 µM (active) | 0.00555 µM (active) | 0.00875 µM (active) | 0.00809 µM (active) | 0.0036 µM (active) | –
9 | COc1cccc2c1C(=O)c1c(O)c3c(c(O)c1C2=O)C[C@@](O)(/C(C)=N/NC(=O)c1ccc(Cl)c(Cl)c1)C[C@@H]3OC1CC(N)C(O)C(C)O1 (some centres not stated) | 0.225 µM (active) | 0.219 µM | 0.146 µM (active) | 0.0448 µM (active) | 0.424 µM (active) | 0.147 µM (active) | 0.411 µM (active) | 0.296 µM (active) | 0.092 µM (active) | 0.0668 µM (active) | 0.0923 µM (active) | 0.176 µM (active) | 0.191 µM (active) | 0.188 µM (active) | 0.505 µM (active) | 0.0269 µM (active) | 0.528 µM (active) | 0.251 µM (active) | 0.27 µM (active) | –
10 | Cc1ccc2c(c1)-c1c(C#N)c(N)nc(-c3ccc(Cl)cc3)c1CCS2(=O)=O | 43.6 µM (inactive) | 4.6 µM | 6.7 µM (inactive) | 3.21 µM (inactive) | 44.5 µM (inactive) | 6.12 µM (inactive) | 5.48 µM (inactive) | 20.1 µM (inactive) | 28.6 µM (inactive) | > 83 µM (inactive) | 5.81 µM (inactive) | 4.55 µM (inactive) | 6.19 µM (inactive) | 5.24 µM (inactive) | 13.6 µM (inactive) | 3.66 µM (inactive) | 6.15 µM (inactive) | 17.2 µM (inactive) | 2.52 µM (inactive) | –
11 | CCc1nc2ccc(C(F)(F)F)cc2[nH]c1=O | > 100 µM (inactive) | > 100 µM | > 100 µM (inactive) | 89.5 µM (inactive) | > 100 µM (inactive) | > 100 µM (inactive) | > 100 µM (inactive) | > 100 µM (inactive) | > 100 µM (inactive) | 52.2 µM (inactive) | > 100 µM (inactive) | > 100 µM (inactive) | > 100 µM (inactive) | > 100 µM (inactive) | > 100 µM (inactive) | > 100 µM (inactive) | > 100 µM (inactive) | > 100 µM (inactive) | > 100 µM (inactive) | –
